Where two headings read alike, the source gives them in different places.
Columns and labels:
[1] = system: MNFS60 (murine AML cells); assay: Cell viability assay in MCSF dependent MNFS60 cells (Cell Titer Glo); type: cell-based; conditions: Mus musculus, tested at about 1 μM, read-out: M-NFS-60 CP percent inhibition
How it was run: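 3-fold DMSO dilution series (500× stocks); MCSF 10 ng/ml final; 72 hrs, 37° C., 5% CO2; CellTiter-Glo read-out; n=3; EC50 fitted.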

kinase domain of cKIT = target: T1, kinase domain of cKIT (Homo sapiens, UniProt P10721); assay: Inhibition of cKIT kinase signaling in an in vitro biochemical assay (alphascreen); conditions: tested at about 1 μM, read-out: cKit percent inhibition
T1 construct: The kinase domain of cKIT was assayed in 50 mM Hepes; purchased Upstate 14-559

kinase domain of PDGFRβ = target: T2, kinase domain of PDGFRβ (Homo sapiens, UniProt P09619); assay: Inhibition of PDGFRb kinase signaling in an in vitro biochemical assay (alphascreen); conditions: tested at about 1 μM, read-out: PDGFRβ percent inhibition
T2 construct: The kinase domain of PDGFRβ was assayed in 50 mM Hepes; purchased Invitrogen P3082

[2] = target: T3, cytoplasmic domain of the human CSF-1R (Homo sapiens, UniProt P07333); assay: In vitro kinase assay for colony stimulating factor-1 receptor (AlphaScreen); type: biochemical; conditions: tested at about 1 μM, read-out: CSF-1R percent inhibition
T3 construct: Recombinant protein corresponding to the cytoplasmic domain of the human CSF-1R; purchased Invitrogen Corporation, Carlsbad, Calif; PV3249
T3 sequence (P07333 539-972 limits assumed): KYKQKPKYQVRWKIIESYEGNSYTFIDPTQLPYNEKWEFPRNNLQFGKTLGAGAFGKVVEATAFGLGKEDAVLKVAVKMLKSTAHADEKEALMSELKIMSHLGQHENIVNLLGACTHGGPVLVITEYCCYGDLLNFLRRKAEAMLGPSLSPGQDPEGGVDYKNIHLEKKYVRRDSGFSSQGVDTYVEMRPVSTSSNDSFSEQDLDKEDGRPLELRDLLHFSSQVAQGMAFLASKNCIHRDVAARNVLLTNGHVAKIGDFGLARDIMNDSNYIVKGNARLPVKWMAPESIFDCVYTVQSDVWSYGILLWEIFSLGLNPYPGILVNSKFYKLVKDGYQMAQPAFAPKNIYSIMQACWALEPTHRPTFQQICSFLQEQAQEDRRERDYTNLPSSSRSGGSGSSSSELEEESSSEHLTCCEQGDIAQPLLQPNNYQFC
How it was run: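 At a low ATP level of 1 μM, phosphate transfer by the cytoplasmic-domain kinase (4 nM) was quantified with an AlphaScreen anti-phosphotyrosine bead pair.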

T2 sequence (P09619 600-962 limits assumed): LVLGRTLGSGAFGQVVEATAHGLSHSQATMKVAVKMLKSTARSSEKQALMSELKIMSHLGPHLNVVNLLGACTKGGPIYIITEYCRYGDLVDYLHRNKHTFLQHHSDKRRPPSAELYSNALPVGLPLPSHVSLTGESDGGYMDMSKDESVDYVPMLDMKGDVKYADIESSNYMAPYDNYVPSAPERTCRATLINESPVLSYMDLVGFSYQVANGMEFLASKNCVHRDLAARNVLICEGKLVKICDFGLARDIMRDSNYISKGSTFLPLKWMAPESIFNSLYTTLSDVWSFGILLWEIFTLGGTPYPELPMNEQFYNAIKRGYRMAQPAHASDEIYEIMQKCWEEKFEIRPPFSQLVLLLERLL
T1 sequence (P10721 589-937 limits assumed): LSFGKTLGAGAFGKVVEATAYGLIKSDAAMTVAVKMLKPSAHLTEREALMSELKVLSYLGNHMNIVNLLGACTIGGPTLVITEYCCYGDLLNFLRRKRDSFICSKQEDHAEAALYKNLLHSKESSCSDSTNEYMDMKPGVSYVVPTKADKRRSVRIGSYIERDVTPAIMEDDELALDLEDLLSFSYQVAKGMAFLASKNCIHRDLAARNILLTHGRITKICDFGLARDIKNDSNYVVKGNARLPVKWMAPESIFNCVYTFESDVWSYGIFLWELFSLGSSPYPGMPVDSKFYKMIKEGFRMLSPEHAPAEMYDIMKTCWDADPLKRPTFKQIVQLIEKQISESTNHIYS

## CC(C)(C)OC(=O)NNC(=O)c1cc(Oc2ccc3nc(NCC4CCCCC4)oc3c2)ccn1 [Compound 68, N'-{4-[2-(Cyclohexylmethyl-amino)-benzooxazol-6-yloxy]-pyridine-2-carbonyl}-hydrazinecarboxylic acid tert-butyl ester]
[1]; MNFS60 cells
  inhibition at 1 µM: 18%
Kinase domain of cKIT
  inhibition at 1 µM: 6%
Kinase domain of PDGFRβ
  inhibition at 1 µM: 3%
[2]
  inhibition at 1 µM: 99%

## FC(F)(F)Oc1ccc2c(Oc3ccc4nc(NCC5CCCCC5)sc4c3)ccnc2c1 [Example 228, N-(cyclohexylmethyl)-6-(7-(trifluoromethoxy)quinolin-4-yloxy)benzo[d]thiazol-2-amine]
[1]; compounds of Table 3
  inhibition at 1 µM: 32%
Kinase domain of cKIT; compounds of Table 3
  inhibition at 1 µM: 70%
Kinase domain of PDGFRβ; compounds of Table 3
  inhibition at 1 µM: 26%
[2]; compounds of Table 3
  inhibition at 1 µM: 100%

## c1cncc(CNc2nc3ccc(Oc4ccnc5ccccc45)cc3s2)c1 [Example 254, N-(pyridin-3-ylmethyl)-6-(quinolin-4-yloxy)benzo[d]thiazol-2-amine]
[1]; compounds of Table 3
  inhibition at 1 µM: 100%
Kinase domain of cKIT; compounds of Table 3
  inhibition at 1 µM: 98%
Kinase domain of PDGFRβ; compounds of Table 3
  inhibition at 1 µM: 0%
[2]; compounds of Table 3
  inhibition at 1 µM: 100%

## CNC(=O)c1cc(Oc2ccc3nc(N[C@H]4CCCN(C(=O)c5ccccc5)C4)sc3c2)ccn1 [Example 336, (S)-4-(2-(1-benzoylpiperidin-3-ylamino)benzo[d]thiazol-6-yloxy)-N-methylpicolinamide]
[1]; MCSF dependent MNFS60 cells
  inhibition at 1 µM: 17%
Kinase domain of cKIT
  inhibition at 1 µM: 23%
Kinase domain of PDGFRβ
  inhibition at 1 µM: 14%
[2]
  inhibition at 1 µM: 94%

## CNC(=O)c1cc(Oc2ccc3nc(N[C@H]4CCC[C@@H]4O)sc3c2)ccn1 [Example 320, 4-(2-((1S,2S)-2-hydroxycyclopentylamino)benzo[d]thiazol-6-yloxy)-N-methylpicolinamide]
[1]; MCSF dependent MNFS60 cells
  inhibition at 1 µM: 25%
Kinase domain of cKIT
  inhibition at 1 µM: 16%
Kinase domain of PDGFRβ
  inhibition at 1 µM: 20%
[2]
  inhibition at 1 µM: 100%

## CNC(=O)c1cc(Oc2ccc3nc(N[C@@H](C)C(C)C)sc3c2)ccn1 [Compound 150]
[1]; compounds of Table 3
  inhibition at 1 µM: 22%
Kinase domain of cKIT; compounds of Table 3
  inhibition at 1 µM: 24%
Kinase domain of PDGFRβ; compounds of Table 3
  inhibition at 1 µM: 2%
[2]; compounds of Table 3
  inhibition at 1 µM: 100%

## OC[C@H](CC1CCCCC1)Nc1nc2ccc(Oc3ccnc4ccccc34)cc2s1 [Example 250]
[1]; compounds of Table 3
  inhibition at 1 µM: 20%
Kinase domain of cKIT; compounds of Table 3
  inhibition at 1 µM: 98%
Kinase domain of PDGFRβ; compounds of Table 3
  inhibition at 1 µM: 0%
[2]; compounds of Table 3
  inhibition at 1 µM: 97%

## COC[C@H](Nc1nc2ccc(Oc3ccnc4ccccc34)cc2s1)[C@@H](O)c1ccccc1 [Example 233, (1S,2S)-3-methoxy-1-phenyl-2-(6-(quinolin-4-yloxy)benzo[d]thiazol-2-ylamino)propan-1-ol]
[1]; compounds of Table 3
  inhibition at 1 µM: 59%
Kinase domain of cKIT; compounds of Table 3
  inhibition at 1 µM: 85%
Kinase domain of PDGFRβ; compounds of Table 3
  inhibition at 1 µM: 84%
[2]; compounds of Table 3
  inhibition at 1 µM: 100%

## CNC(=O)c1cc(Oc2ccc3nc(Nc4cccc(CCN5CCOCC5)c4)oc3c2)ccn1 [Compound 74, 4-{2-[3-(2-Morpholin-4-yl-ethyl)-phenylamino]-benzo-oxazol-6-yloxy}-pyridine-2-carboxylic acid methylamide]
[1]; MNFS60 cells
  inhibition at 1 µM: 14%
Kinase domain of cKIT
  inhibition at 1 µM: 34%
Kinase domain of PDGFRβ
  inhibition at 1 µM: 31%
[2]
  inhibition at 1 µM: 100%

## CNC(=O)c1cc(Oc2ccc3nc(NCCC4CC4)sc3c2)ccn1 [Example 290, 4-(2-(2-cyclopropylethylamino)benzo[d]thiazol-6-yloxy)-N-methylpicolinamide]
[1]; compounds of Table 3
  inhibition at 1 µM: 2%
Kinase domain of cKIT; compounds of Table 3
  inhibition at 1 µM: 10%
Kinase domain of PDGFRβ; compounds of Table 3
  inhibition at 1 µM: 15%
[2]; compounds of Table 3
  inhibition at 1 µM: 100%

## CNC(=O)c1cc(Oc2ccc3nc(NC4C[C@@H]5CC[C@H]4C5)sc3c2)ccn1 (stereo partly drawn) [Compound 140]
[1]; compounds of Table 3
  inhibition at 1 µM: 25%
Kinase domain of cKIT; compounds of Table 3
  inhibition at 1 µM: 27%
Kinase domain of PDGFRβ; compounds of Table 3
  inhibition at 1 µM: 100%
[2]; compounds of Table 3
  inhibition at 1 µM: 100%

## CC[C@H](C)[C@@H](CO)Nc1nc2ccc(Oc3ccnc(-c4cnn(C)c4)c3)cc2s1 [Example 349, (2S,3S)-3-methyl-2-(6-(2-(1-methyl-1H-pyrazol-4-yl)pyridin-4-yloxy)benzo[d]thiazol-2-ylamino)pentan-1-ol]
[1]; MCSF dependent MNFS60 cells
  inhibition at 1 µM: 100%
Kinase domain of cKIT
  inhibition at 1 µM: 77%
Kinase domain of PDGFRβ
  inhibition at 1 µM: 73%
[2]
  inhibition at 1 µM: 100%
